Measurements from BindingDB's records for patent US20230312550 (Astrazeneca, 2023).

Target: T1, Prolyl endopeptidase FAP (Homo sapiens, UniProt Q12884)
T1 sequence (Q12884 whole entry): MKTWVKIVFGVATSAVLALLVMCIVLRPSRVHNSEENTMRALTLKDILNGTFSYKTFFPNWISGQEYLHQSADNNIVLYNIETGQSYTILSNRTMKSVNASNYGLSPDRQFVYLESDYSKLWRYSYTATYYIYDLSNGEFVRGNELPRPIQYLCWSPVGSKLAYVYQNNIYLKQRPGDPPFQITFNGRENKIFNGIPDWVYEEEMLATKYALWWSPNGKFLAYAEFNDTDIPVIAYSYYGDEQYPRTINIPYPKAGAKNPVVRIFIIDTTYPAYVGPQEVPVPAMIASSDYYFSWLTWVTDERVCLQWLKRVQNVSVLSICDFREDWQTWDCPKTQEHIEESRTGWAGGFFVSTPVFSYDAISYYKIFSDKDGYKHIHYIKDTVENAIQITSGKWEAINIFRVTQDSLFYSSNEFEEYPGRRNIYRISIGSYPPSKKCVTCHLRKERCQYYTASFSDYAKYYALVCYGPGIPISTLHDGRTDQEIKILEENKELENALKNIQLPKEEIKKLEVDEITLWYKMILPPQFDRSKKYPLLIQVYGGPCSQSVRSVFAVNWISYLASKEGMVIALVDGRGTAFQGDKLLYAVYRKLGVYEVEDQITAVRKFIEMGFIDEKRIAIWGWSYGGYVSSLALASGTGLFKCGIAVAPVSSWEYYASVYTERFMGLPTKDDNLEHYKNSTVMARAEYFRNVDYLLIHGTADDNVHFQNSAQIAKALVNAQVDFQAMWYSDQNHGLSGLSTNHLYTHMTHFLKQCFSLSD
Assay: hFAP Binding Assay
Settings: for kon: read-out: kon (M-1-s-1)
Protocol: Table 1: Compounds were tested in a direct binding assay using 8K surface plasmon resonance biosensor (GE Healthcare) at 20° C. Immobilization of hFAP (M39-A757) on a CMD200M sensor chip (Xantec) was performed using standard amine coupling procedure in immobilization buffer (10 mM HEPES, 150 mM NaCl, 0.05% Tween20, pH 7.4). The surface was washed with 10 mM NaOH, 1M NaCl before being activated with EDC/NHS (GE Healthcare), followed by immobilization of hFAP (in 10 mM Acetate pH 5.0). Finally, the surface was deactivated by ethanolamine. Immobilization levels of hFAP were around 4000-6000 RU. The reference spot was treated as described, omitting the injection of hFAP. Compound concentration series were injected over the immobilized protein in increasing concentrations (2-500 nM) using single cycle kinetics in running buffer (20 mM TRIS, 150 mM NaCl, 0.05% Tween20, 1% DMSO, pH 7.4).

Row | Structure (SMILES) | koff [s⁻¹] | kon [M⁻¹ s⁻¹]
1 | N#C[C@@H]1CSCN1C(=O)CNC(=O)c1ccnc2ccc(N3CC(CF)C3)cc12 [US20230312550, Example 113] | 4.5e-05 | 1.5e+06
2 | N#C[C@@H]1CSCN1C(=O)CNC(=O)c1ccnc2ccc(-n3ccc4c(F)cc(F)cc43)cc12 [US20230312550, Example 119] | 0.00031 | 610000
3 | CC1(C)Cc2c(-c3ccc4nccc(C(=O)NCC(=O)N5CSC[C@H]5C#N)c4c3)cnn2C1 [US20230312550, Example 123] | 0.00042 | 3e+06
4 | N#C[C@@H]1CSCN1C(=O)CNC(=O)c1ccnc2ccc(-c3ccnc(F)c3)cc12 [US20230312550, Example 124] | 0.00028 | 3e+06
5 | N#C[C@@H]1CSCN1C(=O)CNC(=O)c1ccnc2ccc(-c3ccc(F)cn3)cc12 [US20230312550, Example 125] | 0.00014 | 3e+06
6 | N#C[C@@H]1CSCN1C(=O)CNC(=O)c1ccnc2ccc(-c3cccnc3)cc12 [US20230312550, Example 126] | 0.00021 | 1.8e+06
7 | N#C[C@@H]1CSCN1C(=O)CNC(=O)c1ccnc2ccc(-c3cncnc3)cc12 [US20230312550, Example 127] | 0.002 | 6e+06
8 | Cc1ncccc1-c1ccc2nccc(C(=O)NCC(=O)N3CSC[C@H]3C#N)c2c1 [US20230312550, Example 128] | 0.00066 | 5.4e+06
9 | CC1(C2CC2)CN(c2ccc3nccc(C(=O)NCC(=O)N4CSC[C@H]4C#N)c3c2)C1 [US20230312550, Example 134] | 8e-05 | 620000
10 | CC1(C(F)F)CN(c2ccc3nccc(C(=O)NCC(=O)N4CSC[C@H]4C#N)c3c2)C1 [US20230312550, Example 135] | 2.3e-05 | 1.7e+06
11 | N#C[C@@H]1CSCN1C(=O)CNC(=O)c1ccnc2ccc(N3CC(OC(F)F)C3)cc12 [US20230312550, Example 136] | 5e-05 | 2e+06
12 | CCC1(C)CN(c2ccc3nccc(C(=O)NCC(=O)N4CSC[C@H]4C#N)c3c2)C1 [US20230312550, Example 137] | 9.8e-05 | 9.5e+06
13 | N#C[C@@H]1CSCN1C(=O)CNC(=O)c1ccnc2ccc(N3CC4(CCCC4(F)F)C3)cc12 [US20230312550, Example 141] | 7.8e-05 | 1.4e+06
14 | N#C[C@@H]1CSCN1C(=O)CNC(=O)c1ccnc2ccc(N3CC(F)(C(F)(F)F)C3)cc12 [US20230312550, Example 143] | 5.7e-05 | 1.6e+06
15 | N#C[C@@H]1CSCN1C(=O)CNC(=O)c1ccnc2ccc(N3CC(CC(F)F)C3)cc12 [US20230312550, Example 144] | 0.00051 | 9.1e+06
16 | N#C[C@@H]1CSCN1C(=O)CNC(=O)c1ccnc2ccc(N3CC(C4CC4)C3)cc12 [US20230312550, Example 145] | 0.00013 | 4.5e+06
17 | N#C[C@@H]1CSCN1C(=O)CNC(=O)c1ccnc2ccc(N3CC(CCF)C3)cc12 [US20230312550, Example 146] | 0.00017 | 1.4e+06

Row | Structure (SMILES) | koff [s⁻¹] | kon [M⁻¹ s⁻¹]
18 | CC(F)(F)C1CN(c2ccc3nccc(C(=O)NCC(=O)N4CSC[C@H]4C#N)c3c2)C1 [US20230312550, Example 147] | 0.00012 | 2.8e+06
19 | CC(C)C1CN(c2ccc3nccc(C(=O)NCC(=O)N4CSC[C@H]4C#N)c3c2)C1 [US20230312550, Example 148] | 0.0002 | 6.6e+06
20 | CC1CC2(C1)CN(c1ccc3nccc(C(=O)NCC(=O)N4CSC[C@H]4C#N)c3c1)C2 [US20230312550, Example 149] | 3.9e-05 | 4.8e+06
21 | CCC1(O)CN(c2ccc3nccc(C(=O)NCC(=O)N4CSC[C@H]4C#N)c3c2)C1 [US20230312550, Example 154] | 5.4e-05 | 910000
22 | N#C[C@@H]1CSCN1C(=O)CNC(=O)c1ccnc2ccc(N3CC4(CC(F)C4)C3)cc12 [US20230312550, Example 155] | 5e-05 | 3.1e+06
23 | N#C[C@@H]1CSCN1C(=O)CNC(=O)c1ccnc2ccc(N3CC4C(C3)C4(F)F)cc12 (some centres not stated) [US20230312550, Example 160] | 7.4e-05 | 1.1e+06
24 | N#C[C@@H]1CSCN1C(=O)CNC(=O)c1ccnc2ccc(N3CCC4(CCOCC4)CC3)cc12 [US20230312550, Example 162] | 2.8e-05 | 1.9e+06
25 | N#C[C@@H]1CSCN1C(=O)CNC(=O)c1ccnc2ccc(N3CC4(CC4)C3)cc12 [US20230312550, Example 164] | 3.6e-05 | 1.4e+06
26 | N#C[C@@H]1CSCN1C(=O)CNC(=O)c1ccnc2ccc(N3CC4(COC4)C3)cc12 [US20230312550, Example 166] | 4.9e-05 | 2.2e+06
27 | Cn1nccc1-c1ccc2nccc(C(=O)NCC(=O)N3CSC[C@H]3C#N)c2c1 [US20230312550, Example 174] | 0.00024 | 1.9e+06
28 | N#C[C@@H]1CSCN1C(=O)CNC(=O)c1ccnc2ccc(-c3ccnn3[C@H]3CCCCO3)cc12 [US20230312550, Example 176] | 0.00022 | 120000
29 | COc1ccc(-c2ccc3nccc(C(=O)NCC(=O)N4CSC[C@H]4C#N)c3c2)cn1 [US20230312550, Example 178] | 0.00017 | 3.1e+06
30 | N#C[C@@H]1CSCN1C(=O)CNC(=O)c1ccnc2cc(Cl)c(N3CCOCC3)cc12 [US20230312550, Example 179] | 0.00016 | 3.2e+06
31 | N#C[C@@H]1CSCN1C(=O)CNC(=O)c1ccnc2c(Cl)cc(N3CCOCC3)cc12 [US20230312550, Example 180] | 0.00095 | 560000
32 | N#C[C@@H]1CSCN1C(=O)CNC(=O)c1ccnc2ccc(N3CC(F)(c4ccccc4)C3)cc12 [US20230312550, Example 182] | 4.2e-05 | 250000
33 | CC(=O)N1CC2(C1)CN(c1ccc3nccc(C(=O)NCC(=O)N4CSC[C@H]4C#N)c3c1)C2 [US20230312550, Example 184] | 1.4e-05 | 950000

More lines, now with the values ahead:

Row | koff [s⁻¹] | kon [M⁻¹ s⁻¹] | Structure (SMILES)
34 | 0.0012 | 7.9e+06 | Cc1cc(C(F)(F)F)nn1-c1ccc2nccc(C(=O)NCC(=O)N3CSC[C@H]3C#N)c2c1 [US20230312550, Example 116]
35 | 1.6e-05 | 1.1e+06 | Cc1ccn(-c2ccc3nccc(C(=O)NCC(=O)N4CSC[C@H]4C#N)c3c2)c1 [US20230312550, Example 121]
36 | 4.3e-05 | 1.3e+06 | N#C[C@@H]1CSCN1C(=O)CNC(=O)c1ccnc2ccc(N3CC(N4CCOCC4)C3)cc12 [US20230312550, Example 122]
37 | 0.00014 | 1.8e+06 | CC1(CC(F)(F)F)CN(c2ccc3nccc(C(=O)NCC(=O)N4CSC[C@H]4C#N)c3c2)C1 [US20230312550, Example 131]
38 | 0.00014 | 270000 | N#C[C@@H]1CSCN1C(=O)CNC(=O)c1ccnc2ccc(N3CC(OC(F)(F)F)C3)cc12 [US20230312550, Example 132]
39 | 7.3e-05 | 1.2e+06 | CC1(CC(F)F)CN(c2ccc3nccc(C(=O)NCC(=O)N4CSC[C@H]4C#N)c3c2)C1 [US20230312550, Example 133]
40 | 0.00016 | 2.6e+06 | CC(F)(F)CC1CN(c2ccc3nccc(C(=O)NCC(=O)N4CSC[C@H]4C#N)c3c2)C1 [US20230312550, Example 140]
41 | 5.5e-05 | 1.8e+06 | N#C[C@@H]1CSCN1C(=O)CNC(=O)c1ccnc2ccc(N3CC(CCC(F)(F)F)C3)cc12 [US20230312550, Example 142]
42 | 4.3e-05 | 280000 | N#C[C@@H]1CSCN1C(=O)CNC(=O)c1ccnc2ccc(N3CC4(CC(C(F)(F)F)C4)C3)cc12 [US20230312550, Example 150]
43 | 0.00012 | 1.9e+06 | N#C[C@@H]1CSCN1C(=O)CNC(=O)c1ccnc2ccc(N3CC(F)(CF)C3)cc12 [US20230312550, Example 157]
44 | 0.00029 | 3.1e+06 | N#C[C@@H]1CSCN1C(=O)CNC(=O)c1ccnc2ccc(N3CC(CC(F)(F)F)C3)cc12 [US20230312550, Example 158]
45 | 9.2e-05 | 2.1e+06 | C[C@H]1N(c2ccc3nccc(C(=O)NCC(=O)N4CSC[C@H]4C#N)c3c2)CC1(F)F [US20230312550, Example 159]
46 | 0.00028 | 1.4e+07 | CO[C@@H]1CCN(c2ccc3nccc(C(=O)NCC(=O)N4CSC[C@H]4C#N)c3c2)C1 [US20230312550, Example 161]
47 | 6.3e-05 | 1.2e+06 | CC1(O)CN(c2ccc3nccc(C(=O)NCC(=O)N4CSC[C@H]4C#N)c3c2)C1 [US20230312550, Example 165]
48 | 4.8e-05 | 1.6e+06 | C[C@]1(O)CCN(c2ccc3nccc(C(=O)NCC(=O)N4CSC[C@H]4C#N)c3c2)C1 [US20230312550, Example 168]
49 | 0.00096 | 6.2e+06 | N#C[C@@H]1CSCN1C(=O)CNC(=O)c1ccnc2ccc(-c3ccc(C(F)F)nc3)cc12 [US20230312550, Example 169]
50 | 5.8e-05 | 100000 | Cc1ccc(-c2ccc3nccc(C(=O)NCC(=O)N4CSC[C@H]4C#N)c3c2)cn1 [US20230312550, Example 177]
51 | 0.00022 | 3.1e+06 | N#C[C@@H]1CSCN1C(=O)CNC(=O)c1ccnc2ccc(N3CC(Cc4ccc(Cl)cc4)C3)cc12 [US20230312550, Example 187]
